# Results: patent US6753005B1, “Method for tissue perfusion” (Direct Therapeutics, Inc., priority 1997, dated 2004)
# Entries after “also recorded” stand apart in the source; their conditions may differ. Read-outs that look alike come from different tables or passages of the source. Marks after values point to notes of the source that are not given here.
# Experiments:
# normal canine prostate = experiment: Normal canine prostate model, intraprostatic injection
# Protocol: Random-source adult male canines were used in this experiment.
# Body surface area (m2) was calculated for each animal using published tables.
# On the day of surgery, the animals were preanesthetized with acepromazine (0.22 mg/kg) and atropine (0.05 mg/kg) intramuscularly. General anesthesia was induced with intravenous thiopental sodium (20-25 mg/kg) and, following orotracheal intubation, was maintained with a 0.5-2.0% halothane-oxygen mixture given through a semi-closed circle system. Perioperative antibiotics consisted of intravenous gentamicin (3 mg/kg) on the day of surgery and daily intramuscular gentamicin (3 mg/kg) for seven days following surgery.
# In each animal, an 8 French urinary catheter was passed per urethra into the bladder, and the bladder was filled with normal saline. A diagnostic Aloka Echo SSD650 ultrasound machine with a UST 664 5/7.5 MHZ biplanar linear array transrectal probe (Wallingford, Conn.) was used to determine the maximal axial (transverse) width, height, and midline sagittal (longitudinal) length. The length was measured in the midline from the distal most aspect of the apex to the cephalad most portion of the gland. The volume was then determined using the following formula: length×width×½ height. A lower abdominal midline incision was created, and the peritoneal cavity was entered. The bladder and prostate were exposed and the periprostatic fat was carefully dissected off of the base of the gland. Using TRUS imaging of the prostate as well as direct visualization through the peritoneotomy a three inch 20 gauge spinal needle connected to a standard 10-cc luer-lock syringe containing the appropriate aliquot for injection was guided into the base of the right lobe of the prostate. The needle tip was localized within the prostatic parenchyma with ultrasound guidance and appropriately positioned.
# Animals were randomly divided into subgroups. Animals A1 and A2 received a volume of dehydrated ethanol equal to 100% of the measured prostate volume while the remaining animals received a volume of 98% dehydrated ethanol equal to 50% of the total gland volume as determined by TRUS imaging. The animals received escalating doses of Carmustine dissolved in dehydrated ethanol: A1 and A2 2 mg/ml; B1 and B2, 5 mg/ml; C1 and C2 12.5 mg/ml; D1 and D2 18 mg/ml; and E1 and E2, 25 mg/ml. All animal subgroups were injected on separate days under general anesthesia through a midline peritoneotomy approach using TRUS guidance for needle placement. The needle was initially positioned at the ventral aspect of the apex of the gland and then withdrawn from apex to base during the injection. The needle was then repositioned toward the dorsal aspect of the gland at the apex and withdrawn toward the base during the injection so that as much of the parenchyma could be covered as possible.
# Fourteen days following injection all animals underwent repeat TRUS imaging of the prostate gland under general anesthesia and were then euthanized by exsanguination under deep general anesthesia. The bladders and prostates were excised enbloc and fixed in formalin. If there was any evidence of perirectal inflammation or suspicion of pathology a section of the rectum was removed for pathologic examination. After adequate tissue fixation in formalin, the prostate glands were step sectioned and the volume of the prostate parenchyma affected (cm3) was calculated and quantitated based on the measured length, height and thickness of individual step sections of the gland. The volumes were then added together resulting in a quantification of the total parenchymal volume affected on a prostate gland for prostate gland basis. The tissue was then submitted for histopathologic interpretation.
# Walker 256 tumors = conditions: for Tumor Free at Time of Death: number of animals
# Protocol: Tumor fragments derived from serially transplanted Walker 256 tumors were prepared and transplanted subcutaneously into female Harlan Sprague Dawley rats. Once the tumors reached appropriate size, animals were randomized into treatment groups of 5 or 6 animals and an untreated control group of 10 animals. Tumor volume for each animal was calculated using the formula: volume=(I×w2)/2. Observations included daily visual observation of each animal's general health, tumor measurements three times per week and weight every week. These measurements continued until: efficacy was apparent, the animal was terminal, the tumor became necrotic, tumor interfered with the animal's ability to eat or drink, or ten weeks beyond commencement of dosing.
# Fifty rats bearing tumors ranging from 550 to 1634 mm^3 were randomly divided into eight treatment groups and 2 control groups. The following treatments were respectively administered to the eight treatment groups: […]
# normal rat liver = experiment: Normal rat liver model, intrahepatic injection; type: in vivo; conditions: for Clinical Signs / Gross Findings (liver lesions) / Survival: 2 rats; for Gross Findings (liver lesions): 2 weeks; for Survival: sacrifice 2 weeks
# Protocol: 54 male Sprague-Dawley rats 250-300 g in body weight were caged in groups of 2 by treatment group, in standard animal housing facilities and given free access to food and water. Prior to surgery, animals received 0.2 ml intramuscular injection of ketamine and xylazine (30 mg/kg and 4 mg/kg respectively). Rats were anesthetized and fixed on a restraining board. The right upper quadrant of the abdomen was shaved and prepped with betadine solution. A lateral incision approximately 1 cm in length was made 2 cm to the right of the abdominal mid-line and 2 cm below the last rib on the right side and the liver exposed. Under direct visual observation, the solution was injected into the liver slowly over a period of about 2 minutes, using a Hamilton microliter syringe (702) equipped with a 27 gauge needle. The needle was withdrawn and the abdominal incision closed using 4-0 plain gut to seal the peritoneum and skin clips to close the skin. Observations of each animal were made hourly for 4 hours during the day of surgery and daily thereafter for two weeks. At two weeks the animals were sacrificed and their livers examined grossly for lesions at the site of injection.
# [1] = all animals, 14 days after injection
# [2] = carmustine 5 mg/ml ethanol, 50% of prostate volume, prostate volume 8.42, 14 days
# [3] = carmustine 5 mg/ml ethanol, 50% of prostate volume, prostate volume 9.8, 14 days
# [4] = carmustine 12.5 mg/ml ethanol, 50% of prostate volume, prostate volume 4.36, 14 days
# [5] = carmustine 12.5 mg/ml ethanol, 50% of prostate volume, prostate volume 20.16, 14 days
# [6] = carmustine 18 mg/ml ethanol, 50% of prostate volume, prostate volume 27.75, 14 days
# [7] = carmustine 18 mg/ml ethanol, 50% of prostate volume, prostate volume 37.2, 14 days
# [8] = carmustine 25 mg/ml ethanol, 50% of prostate volume, prostate volume 22.14, 14 days
# [9] = Group VI: carmustine 3.3 mg/ml in absolute ethanol, 100% tumor volume
# [10] = 100 μl ethanol + 1.25 mg carmustine (12.5 mg/ml)
# [11] = 100 μl ethanol + 2.5 mg carmustine (25 mg/ml)
# [12] = 100 μl ethanol + 5 mg carmustine (50 mg/ml)
# [13] = 100 μl ethanol + 10 mg carmustine (100 mg/ml)
# [14] = 100 μl ethanol, 12.5-50 mg/ml carmustine
compound,measurement,setting,value
"O=NN(CCCl)C(=O)NCCCl [Carmustine, carmustine]",relation of carmustine concentration to volume of tissue affected,"normal canine prostate; 2-25 mg/ml carmustine in dehydrated ethanol, 14 days",highest concentrations of carmustine were associated with the largest volumes of tissue affected
same,rectal injuries,normal canine prostate; all animals,no rectal injuries
same,findings in prostatic parenchyma (TRUS and step sections),normal canine prostate; [1],hemorrhagic and coagulative necrosis
same,findings in the urethra,normal canine prostate; [1],"submucosal hemorrhage, mucosal erosion and inflammation"
same,Periprostatic Tissue Involvement,"normal canine prostate; carmustine 5 mg/ml ethanol, 50% of prostate volume, prostate volume 8.42",Marked fat necrosis
same,Volume Affected Left,normal canine prostate; [2],0.68 cc^3
same,Volume Affected PU (periurethral),normal canine prostate; [2],0 cc^3
same,Volume Affected Right,normal canine prostate; [2],1.73 cc^3
same,Periprostatic Tissue Involvement,"normal canine prostate; carmustine 5 mg/ml ethanol, 50% of prostate volume, prostate volume 9.8",Cystic necrosis R
same,Volume Affected Left,normal canine prostate; [3],1.61 cc^3
same,Volume Affected PU (periurethral),normal canine prostate; [3],2.51 cc^3
same,Volume Affected Right,normal canine prostate; [3],0.85 cc^3
same,Periprostatic Tissue Involvement,"normal canine prostate; carmustine 12.5 mg/ml ethanol, 50% of prostate volume, prostate volume 4.36",Moderate fat necrosis
same,Volume Affected PU (periurethral),normal canine prostate; [4],0.62 cc^3
same,Volume Affected left + right,normal canine prostate; [4],1.8 cc^3
same,Periprostatic Tissue Involvement,"normal canine prostate; carmustine 12.5 mg/ml ethanol, 50% of prostate volume, prostate volume 20.16",Minimal fat necrosis
same,Volume Affected Left,normal canine prostate; [5],1.8 cc^3
same,Volume Affected PU (periurethral),normal canine prostate; [5],0 cc^3
same,Volume Affected Right,normal canine prostate; [5],1.4 cc^3
same,Periprostatic Tissue Involvement,"normal canine prostate; carmustine 18 mg/ml ethanol, 50% of prostate volume, prostate volume 27.75",Marked fat necrosis
same,Volume Affected Left,normal canine prostate; [6],8.35 cc^3
same,Volume Affected PU (periurethral),normal canine prostate; [6],1.2 cc^3
same,Volume Affected Right,normal canine prostate; [6],12.31 cc^3
same,Periprostatic Tissue Involvement,"normal canine prostate; carmustine 18 mg/ml ethanol, 50% of prostate volume, prostate volume 37.2",Marked fat necrosis
same,Volume Affected Left,normal canine prostate; [7],11.76 cc^3
same,Volume Affected PU (periurethral),normal canine prostate; [7],3.84 cc^3
same,Volume Affected Right,normal canine prostate; [7],9.73 cc^3
same,Periprostatic Tissue Involvement,"normal canine prostate; carmustine 25 mg/ml ethanol, 50% of prostate volume, prostate volume 22.14",Mild fat necrosis
same,Volume Affected Left,normal canine prostate; [8],7.5 cc^3
same,Volume Affected PU (periurethral),normal canine prostate; [8],0 cc^3
same,Volume Affected Right,normal canine prostate; [8],4.8 cc^3
same,Periprostatic Tissue Involvement,"normal canine prostate; carmustine 25 mg/ml ethanol, 50% of prostate volume, prostate volume 32.64",Large pelvic abscess
same,Volume Affected left + right + periurethral,"normal canine prostate; carmustine 25 mg/ml ethanol, 50% of prostate volume, prostate volume 32.64, 14 days",32.64** cc^3
same,selective effect on tumor cells,Walker 256 tumors; 100% ethanol and 3.3 mg/ml carmustine,selectively kill tumor cells
same,Complete Regressors/Total,Walker 256 tumors; [9],4/5
same,local findings in the area of the tumor,Walker 256 tumors; [9],"no evidence of scar, hair loss or residual redness"
same,Mean Days to Tumor Size 5000 mm^3 after treatment,"Walker 256 tumors; Group VI: carmustine 3.3 mg/ml in absolute ethanol, 100% tumor volume, 2 animals",29.5 days
same,Tumor Free at Time of Death,Walker 256 tumors; [9],3
same,Tumor Free at Time of Death,"Walker 256 tumors; Group VI: carmustine 3.3 mg/ml in absolute ethanol, 100% tumor volume, listed as carmustine",three
same,Clinical Signs,normal rat liver; [10],ANAS
same,Gross Findings (liver lesions),normal rat liver; [10],no lesion
same,Survival,normal rat liver; [10],term
same,Gross Findings (liver lesions),normal rat liver; [11],very small lesions
same,Survival,normal rat liver; [11],term
same,Gross Findings (liver lesions),normal rat liver; [12],small lesions
same,Survival,normal rat liver; [12],term
same,Clinical Signs,normal rat liver; [13],Less active &
same,Gross Findings (liver lesions),normal rat liver; [13],large areas of tissue destruction; also recorded: fice. Large areas
same,Survival,normal rat liver; [13],term
same,Clinical signs at sacrifice,normal rat liver; [14],appeared normal at sacrifice
same,gross examination of the liver,normal rat liver; [14],no or small lesions
same,toxic effects in normal liver tissue,normal rat liver; solutions containing carmustine up to 50 mg/ml,no toxic effects
